Reference: ChEMBL document CHEMBL1201862, “PubChem BioAssay data set” (2004)
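Cultured in 96-well plates, cells were exposed to test compound for 48 hours across five concentrations. GI50 is the concentration that inhibits growth by half.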 Activity calls are given as the source filed them. No stated cut-off is given here; in the data, active = GI50 up to about 1.1 µM and inactive = higher.

Tests used:
Assay in all cases: inhibition of tumour cell growth, NCI panel, 48 h
HOP-62 = system: HOP-62
HOP-92 = system: HOP-92
KM12 = system: KM12
M14 = system: M14
MCF7 = system: MCF7
MDA-MB-435 = system: MDA-MB-435
MDA-N = system: MDA-N
Malme-3M = system: Malme-3M
NCI-H226 = system: NCI-H226
NCI-H522 = system: NCI-H522
NCI/ADR-RES = system: NCI/ADR-RES
PC-3 = system: PC-3
SNB-75 = system: SNB-75
SR = system: SR
T47D = system: T47D
786-0 = system: 786-0
ACHN = system: ACHN
MDA-MB-231 = system: MDA-MB-231

SMILES | GI50 (HOP-62) | GI50 (HOP-92) | GI50 (KM12) | GI50 (M14) | GI50 (MCF7) | GI50 (MDA-MB-435) | GI50 (MDA-N) | GI50 (Malme-3M) | GI50 (NCI-H226) | GI50 (NCI-H522) | GI50 (NCI/ADR-RES) | GI50 (PC-3) | GI50 (SNB-75) | GI50 (SR) | GI50 (T47D) | GI50 (786-0) | GI50 (ACHN) | GI50 (MDA-MB-231)
CCOC(=O)CCC(NC(=O)OCc1ccccc1)C(=O)NC(CCC(=O)OCC)C(=O)NNC(=O)OC(C)(C)C (configuration not stated) | > 100 µM (inactive) | > 100 µM (inactive) | > 100 µM (inactive) | > 100 µM (inactive) | > 100 µM (inactive) | > 100 µM (inactive) | > 100 µM (inactive) | > 100 µM (inactive) | 36.6 µM (inactive) | > 100 µM (inactive) | > 100 µM (inactive) | 38.8 µM (inactive) | > 100 µM (inactive) | > 100 µM (inactive) | > 100 µM (inactive) | – | – | –
COc1cccc(-c2nnc3c(-c4ccccc4)nc4ccccc4n23)c1 | 58.1 µM (inactive) | 28 µM (inactive) | 4.94 µM (inactive) | 29.5 µM (inactive) | 14.4 µM (inactive) | 2.91 µM (inactive) | 3.5 µM (inactive) | 10.9 µM (inactive) | 57.3 µM (inactive) | 3.37 µM (inactive) | 14.4 µM (inactive) | 16.4 µM (inactive) | – | 3.9 µM (inactive) | 4.35 µM (inactive) | 49.1 µM (inactive) | > 62.2 µM (inactive) | 24.5 µM (inactive)
Cc1cccc2c(N)c3cccc(C(=O)NCCN(C)C)c3nc12 | < 0.0247 µM (active) | – | – | 0.143 µM (active) | < 0.0168 µM (active) | 0.12 µM (active) | – | 0.173 µM (active) | – | < 0.0176 µM (active) | 0.373 µM (active) | 0.0643 µM (active) | 0.074 µM (active) | < 0.01 µM (active) | 0.0378 µM (active) | < 0.0199 µM (active) | < 0.0163 µM (active) | 0.0538 µM (active)
CCOC(=O)CSc1nc(N)c2c(-c3ccc(OC)c(OC)c3)c3c(nc2n1)CCCC3 | 39 µM (inactive) | – | > 100 µM (inactive) | > 100 µM (inactive) | > 100 µM (inactive) | > 100 µM (inactive) | > 100 µM (inactive) | 88.1 µM (inactive) | – | – | 60.3 µM (inactive) | > 100 µM (inactive) | 14.4 µM (inactive) | > 100 µM (inactive) | > 100 µM (inactive) | – | > 100 µM (inactive) | 43 µM (inactive)
NC(CCP(=O)(O)CCC1C=CC=CC1)C(=O)O (configuration not stated) | – | > 100 µM (inactive) | > 100 µM (inactive) | > 100 µM (inactive) | – | > 100 µM (inactive) | > 100 µM (inactive) | – | – | 20.7 µM (inactive) | > 100 µM (inactive) | > 100 µM (inactive) | > 100 µM (inactive) | > 100 µM (inactive) | > 100 µM (inactive) | – | > 100 µM (inactive) | > 100 µM (inactive)
N=C(CSS(=O)(=O)O)NC1CC2CCC1C2 (configuration not stated) | 95.7 µM (inactive) | > 100 µM (inactive) | > 100 µM (inactive) | > 100 µM (inactive) | > 100 µM (inactive) | 95.5 µM (inactive) | > 100 µM (inactive) | > 100 µM (inactive) | > 100 µM (inactive) | > 100 µM (inactive) | > 100 µM (inactive) | > 100 µM (inactive) | > 100 µM (inactive) | > 100 µM (inactive) | 71.8 µM (inactive) | > 100 µM (inactive) | > 100 µM (inactive) | > 100 µM (inactive)
COc1cc(-c2cc(=O)c3c(O)c(CC=C(C)C)c(O)cc3o2)ccc1O | 24.2 µM (inactive) | > 50 µM (inactive) | – | 12.4 µM (inactive) | 25.1 µM (inactive) | 9.1 µM (inactive) | 8.49 µM (inactive) | 13.5 µM (inactive) | > 50 µM (inactive) | – | 16 µM (inactive) | 16.7 µM (inactive) | – | 14.7 µM (inactive) | 9.77 µM (inactive) | – | 19.1 µM (inactive) | 43.5 µM (inactive)
COC(=O)[C@H](Cc1ccc(OC(C)(C)C)cc1)N[C@H](C)C(=O)N[C@@H](Cc1ccccc1)C(=O)OCc1ccccc1 | > 100 µM (inactive) | > 100 µM (inactive) | 83.9 µM (inactive) | 52.4 µM (inactive) | 34.5 µM (inactive) | 82.8 µM (inactive) | > 100 µM (inactive) | > 100 µM (inactive) | 25.8 µM (inactive) | > 100 µM (inactive) | > 100 µM (inactive) | 61.7 µM (inactive) | 57.1 µM (inactive) | 26.2 µM (inactive) | – | 54.3 µM (inactive) | 93.1 µM (inactive) | > 100 µM (inactive)
CC1(C)OP(=O)(c2ccccc2)C=C1Sc1ccc([N+](=O)[O-])cc1[N+](=O)[O-] (configuration not stated) | > 100 µM (inactive) | 91.4 µM (inactive) | 98.2 µM (inactive) | 63.8 µM (inactive) | 41.5 µM (inactive) | 70 µM (inactive) | 71.8 µM (inactive) | 78.3 µM (inactive) | > 100 µM (inactive) | 19 µM (inactive) | 80.5 µM (inactive) | 65.3 µM (inactive) | > 100 µM (inactive) | 17.3 µM (inactive) | > 100 µM (inactive) | 38.6 µM (inactive) | > 100 µM (inactive) | –
O=C(Nc1ccccc1F)c1c(O)nc2sccn2c1=O | > 10 µM (inactive) | – | > 10 µM (inactive) | > 10 µM (inactive) | > 10 µM (inactive) | > 10 µM (inactive) | > 10 µM (inactive) | > 10 µM (inactive) | > 10 µM (inactive) | > 10 µM (inactive) | > 10 µM (inactive) | > 10 µM (inactive) | > 10 µM (inactive) | > 10 µM (inactive) | > 10 µM (inactive) | – | > 10 µM (inactive) | > 10 µM (inactive)
CC(=O)OC/C=C/Cn1ncc(=O)[nH]c1=O | > 100 µM (inactive) | > 100 µM (inactive) | > 100 µM (inactive) | > 100 µM (inactive) | > 100 µM (inactive) | > 100 µM (inactive) | > 100 µM (inactive) | > 100 µM (inactive) | > 100 µM (inactive) | > 100 µM (inactive) | > 100 µM (inactive) | > 100 µM (inactive) | > 100 µM (inactive) | – | > 100 µM (inactive) | – | > 100 µM (inactive) | > 100 µM (inactive)
N/N=C1\C(OC(=O)Nc2cccc(Cl)c2)=Nc2ccccc21 | 2.75 µM (inactive) | 6.47 µM (inactive) | 4.58 µM (inactive) | 7.01 µM (inactive) | 8.51 µM (inactive) | 8.57 µM (inactive) | 3.12 µM (inactive) | 12.1 µM (inactive) | 15.3 µM (inactive) | 3.13 µM (inactive) | 6.4 µM (inactive) | 4.98 µM (inactive) | 6.22 µM (inactive) | 11.4 µM (inactive) | 2.45 µM (inactive) | 6.64 µM (inactive) | 8 µM (inactive) | 12.1 µM (inactive)
C[C@]12CC[C@@H]3c4ccc(OCCN5CCCC5)cc4CC[C@H]3[C@@H]1CCC2=O | 18.6 µM (inactive) | 29 µM (inactive) | – | 13.7 µM (inactive) | 22.5 µM (inactive) | 42.7 µM (inactive) | 22 µM (inactive) | – | 19.6 µM (inactive) | – | 24.7 µM (inactive) | 23.7 µM (inactive) | – | 29.9 µM (inactive) | 36.1 µM (inactive) | – | 62.7 µM (inactive) | 24.5 µM (inactive)
